# Measurements published in PMC3914206.
# Tests used:
# [1] = biological target: T1, panel of 442 kinases (Homo sapiens, UniProt Q8N5S9); assay type: binding; details: Compound Concentration 10 µM
# T1 construct: purchased KINOMEscan
# Excerpt: (§1) We assessed the selectivity of members of this scaffold using the KINOMEscan methodology across a near comprehensive panel of 442 kinases [[18,27]].
# [2] = biological target: T2, panel of 442 kinases (Homo sapiens, UniProt O95835); assay type: binding; details: Compound Concentration 10 µM
# T2 construct: purchased KINOMEscan
# T2 sequence (O95835 1-1130): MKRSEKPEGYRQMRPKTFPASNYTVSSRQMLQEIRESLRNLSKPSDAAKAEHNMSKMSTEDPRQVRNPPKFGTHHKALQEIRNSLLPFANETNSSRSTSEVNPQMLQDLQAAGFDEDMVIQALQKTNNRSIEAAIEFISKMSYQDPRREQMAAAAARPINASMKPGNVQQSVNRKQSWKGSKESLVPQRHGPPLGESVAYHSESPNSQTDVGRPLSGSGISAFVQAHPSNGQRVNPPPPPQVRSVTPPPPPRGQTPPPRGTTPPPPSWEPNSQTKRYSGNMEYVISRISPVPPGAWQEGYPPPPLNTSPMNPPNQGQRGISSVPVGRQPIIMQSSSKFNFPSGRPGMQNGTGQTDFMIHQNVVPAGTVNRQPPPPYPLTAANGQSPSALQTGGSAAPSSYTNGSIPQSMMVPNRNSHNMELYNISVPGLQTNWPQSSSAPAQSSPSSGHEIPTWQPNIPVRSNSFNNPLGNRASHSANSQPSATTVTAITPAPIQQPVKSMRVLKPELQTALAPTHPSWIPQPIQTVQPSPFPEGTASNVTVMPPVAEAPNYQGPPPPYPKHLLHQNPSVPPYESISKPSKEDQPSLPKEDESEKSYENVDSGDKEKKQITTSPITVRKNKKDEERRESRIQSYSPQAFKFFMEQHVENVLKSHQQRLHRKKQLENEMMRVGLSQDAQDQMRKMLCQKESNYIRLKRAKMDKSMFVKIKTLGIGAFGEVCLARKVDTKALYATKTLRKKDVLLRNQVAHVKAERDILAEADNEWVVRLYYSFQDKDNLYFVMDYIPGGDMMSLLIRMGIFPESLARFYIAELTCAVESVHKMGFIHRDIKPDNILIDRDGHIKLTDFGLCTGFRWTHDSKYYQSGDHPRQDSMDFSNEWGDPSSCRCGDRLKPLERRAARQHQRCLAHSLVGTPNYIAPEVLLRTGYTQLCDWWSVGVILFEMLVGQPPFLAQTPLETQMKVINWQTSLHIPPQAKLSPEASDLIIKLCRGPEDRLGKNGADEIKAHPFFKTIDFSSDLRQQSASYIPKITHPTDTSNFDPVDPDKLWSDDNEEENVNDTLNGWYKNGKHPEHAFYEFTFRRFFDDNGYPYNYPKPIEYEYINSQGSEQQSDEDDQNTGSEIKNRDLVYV
# Excerpt: as §1
# T1 sequence (Q8N5S9 whole entry): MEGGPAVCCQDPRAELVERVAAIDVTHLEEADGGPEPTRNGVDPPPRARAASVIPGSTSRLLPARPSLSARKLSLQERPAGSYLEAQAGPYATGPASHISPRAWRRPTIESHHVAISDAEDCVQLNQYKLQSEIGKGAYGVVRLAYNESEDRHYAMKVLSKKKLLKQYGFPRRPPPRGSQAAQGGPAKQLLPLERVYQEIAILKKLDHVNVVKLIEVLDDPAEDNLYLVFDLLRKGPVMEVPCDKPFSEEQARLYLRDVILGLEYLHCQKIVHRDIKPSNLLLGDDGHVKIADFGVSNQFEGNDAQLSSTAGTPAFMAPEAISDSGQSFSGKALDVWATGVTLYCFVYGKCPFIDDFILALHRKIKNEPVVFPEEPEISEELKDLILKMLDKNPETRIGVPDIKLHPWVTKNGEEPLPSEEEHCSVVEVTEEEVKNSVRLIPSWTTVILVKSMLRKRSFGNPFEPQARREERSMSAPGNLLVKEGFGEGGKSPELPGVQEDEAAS
Compound,KINOMEscan: CAMKK1 [1],KINOMEscan: LATS1 [2]
CCOc1cc(C(=O)N2CCC(N3CCN(C)CC3)CC2)ccc1Nc1ncc2c(n1)N(C1CCCC1)c1ccccc1C(=O)N2C [Compound 26],100,100
"COc1cc(C(=O)N2CCC(N3CCN(C)CC3)CC2)ccc1Nc1ncc2c(n1)N(C1CCCC1)c1ccccc1C(=O)N2C [Compound 25, 11-cyclopentyl-2-((2-methoxy-4-(4-(4-methylpiperazin-1-yl)piperidine-1-carbonyl)phenyl)amino)-5-methyl-5H-benzo[e]pyrimido[5,4-b][1,4]diazepin-6(11H)-one]",99,100
COc1cc(C(=O)N2CCC(N3CCN(C)CC3)CC2)ccc1Nc1ncc2c(n1)N(C)c1ccccc1C(=O)N2C [15 (LRRK2-IN-1)],73,100
